What follows are compounds tested against T1, CRAC channel (Homo sapiens, UniProt Q96D31) (assay: HEK Calcium Influx Assay (FLIPR)). Settings: 10 μM; endogenous SOC in HEK293 cells, thapsigargin store depletion, Ca2+ signal 9.5-10 min post-administration; read-out: % inhib.[@ 10 μM] FLIPR.
T1 construct: host or cells: HEK293
Assay type: cell-based
Description: The effect of compounds of the invention on intracellular [Ca^2+] was tested in the HEK293 cell line (ECACC).
HEK293 cells were cultured in DMEM/F12/Glutamax (Gibco) containing 10% FCS (Gibco), and maintained at 37° C., 5% CO2. Cell were split twice a week [3*10^6 (Mon-Thu) and 1*10^6 (Thu-Mon) cells/50 ml medium in T-175 ZK culture flasks, respectively]. Twenty four hours pre-experiment, cells were seeded on 96 well plates (Poly-D-Lysine 96well Black/Clear Plate, BD Biocoat REF 356640) at a density of 40,000 cells/well in DMEM/F12 (Gibco) containing 10% FCS (Gibco), and maintained at 37° C., 5% CO2.
Prior to store-depletion, cell culture medium was removed and cells were loaded with the a Calcium-sensitive fluorescent dye comprised within the Calcium-4-assay kit (Molecular Devices) in nominally Ca^2+-free HBS buffer (140 mM NaCl, 4 mM KCl, 0.2 mM MgCl2, 11 mM D-glucose, and 10 mM HEPES, pH 7.4) according to manufacturer's instruction for 60 min at 37° C., 5% CO2.
Passive depletion of intracellular Ca^2+-stores was then triggered by employing the SERCA inhibitor thapsigargin (2 μM final) for 10 min in the dark (RT). To prevent immediate Ca^2+-entry via the activated Store-operated channels (SOCs), cells were maintained in Ca^2+-free HBS buffer comprising 100 μM EGTA during store-depletion.
Intracellular changes in [Ca^2+] were subsequently monitored with the FLIPR device (Molecular Devices). In brief, baseline imaging post-store depletion was allowed for 1 min before adjusting the extracellular buffer to 3 mM CaCl2. Increases in intracellular [Ca^2+] due to pre-activated SOC channels were monitored for 15 min until intracellular Ca^2+ levels had declined into a steady-state. Finally, compounds were administered and Ca^2+ signals were recorded for additional 10 min.
Inhibition of endogenous SOC in HEK293 cells was quantified employing the average Ca^2+ signal measured from 9.5-10 min post-administration. Zero percent inhibition (MAX) was defined as the Ca^2+ signal recorded from wells to which DMSO-only had been added instead of compound. Hundred percent inhibition (MIN) was defined as the signal obtained from wells in which cells haven't been treated with TG prior to Ca^2+ addition and to which DMSO-only had been added instead of compound. For routine IC50 determinations of compounds, 8 concentrations of a serial dilution (1:3.16) were tested, starting off from 10 μM. Reliable IC50's could consequently be determined only, if they were at least sub 2.5-3 μM.

T1 sequence (Q96D31 whole entry): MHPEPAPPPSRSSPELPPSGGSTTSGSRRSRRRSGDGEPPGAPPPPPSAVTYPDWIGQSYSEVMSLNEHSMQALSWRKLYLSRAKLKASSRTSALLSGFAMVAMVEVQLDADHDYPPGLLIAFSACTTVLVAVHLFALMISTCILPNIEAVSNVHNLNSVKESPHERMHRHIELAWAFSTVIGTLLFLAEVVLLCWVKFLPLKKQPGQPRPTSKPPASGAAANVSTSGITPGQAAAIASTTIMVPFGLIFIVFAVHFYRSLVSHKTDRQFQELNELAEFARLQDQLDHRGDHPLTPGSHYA

Structure (SMILES) | inhibition at 10 µM [%]
Cn1nc(C(=O)Nc2c(F)cccc2F)cc1-c1cc(F)ccc1F [Example 5, 5-(2,5-Difluoro-phenyl)-N-(2,6-difluoro-phenyl)-1-methyl-1H-pyrazole-3-carboxylic acid amide] | 50 to 70
Cn1nc(C(=O)Nc2c(F)cccc2F)cc1-c1cc(C(F)(F)F)ccc1F [Example 6, N-(2,6-Difluoro-phenyl)-5-[2-fluoro-5-(trifluoromethyl)-phenyl]-1-methyl-1H-pyrazole-3-carboxylic acid amide] | > 70
Cn1nc(C(=O)Nc2ccncc2F)cc1-c1ccc(OC(F)(F)F)cc1Cl [Example 11, 5-[2-Chloro-4-(trifluoromethyloxy)-phenyl]-N-(3-fluoro-pyridin-4-yl)-1-methyl-1H-pyrazole-3-carboxylic acid amide] | 50 to 70
COc1ccc(OC)c(-c2cc(C(=O)Nc3ccc(S(C)(=O)=O)cc3F)nn2C)c1 [Example 13, 5-(2,5-Dimethoxyphenyl)-N-(2-fluoro-4-methylsulfonyl-phenyl)-1-methyl-1H-pyrazole-3-carboxylic acid amide] | 50 to 70
COc1ccc(OC)c(-c2cc(C(=O)Nc3ccncc3C(F)(F)F)nn2C)c1 [Example 14, 5-(2,5-Dimethoxyphenyl)-1-methyl-N-[3-(trifluoromethyl)-pyridin-4-yl]-1H-pyrazole-3-carboxylic acid amide] | 50 to 70
COc1ccc(OC)c(-c2cc(C(=O)Nc3ccncc3F)nn2C)c1 [Example 19, 5-(2,5-Dimethoxyphenyl)-N-(3-fluoro-pyridin-4-yl)-1-methyl-1H-pyrazole-3-carboxylic acid amide] | > 70
COc1ccc(Cl)cc1-c1cc(C(=O)Nc2ccncc2F)nn1C [Example 22, 5-(5-Chloro-2-methoxy-phenyl)-N-(3-fluoro-pyridin-4-yl)-1-methyl-1H-pyrazole-3-carboxylic acid amide] | 50 to 70
Cc1ccc(Cl)cc1-c1cc(C(=O)Nc2ccncc2F)nn1C [Example 23, 5-(5-Chloro-2-methyl-phenyl)-N-(3-fluoro-pyridin-4-yl)-1-methyl-1H-pyrazole-3-carboxylic acid amide] | 50 to 70
COc1ccc(-c2cc(C(=O)Nc3ccncc3F)nn2C)c(C)c1 [Example 24, N-(3-Fluoro-pyridin-4-yl)-5-(4-methoxy-2-methyl-phenyl)-1-methyl-1H-pyrazole-3-carboxylic acid amide] | > 70
Cc1cnccc1NC(=O)c1cc(-c2cc(Cl)ccc2C)n(C)n1 [Example 28, 5-(5-Chloro-2-methyl-phenyl)-1-methyl-N-(3-methyl-pyridin-4-yl)-1H-pyrazole-3-carboxylic acid amide] | 50 to 70

Continued, values first:

inhibition at 10 µM [%] | Structure (SMILES)
50 to 70 | Cc1ccc(C(F)(F)F)cc1-c1cc(C(=O)Nc2ccncc2F)nn1C [Example 29, N-(3-Fluoro-pyridin-4-yl)-1-methyl-5-[2-methyl-5-(trifluoromethyl)-phenyl]-1H-pyrazole-3-carboxylic acid amide]
> 70 | COc1ccc(OC)c(-c2cc(C(=O)Nc3ccccc3F)nn2C)c1 [Example 33, 5-(2,5-Dimethoxyphenyl)-N-(2-fluorophenyl)-1-methyl-1H-pyrazole-3-carboxylic acid amide]
50 to 70 | CCn1nc(C(=O)Nc2c(F)cccc2F)cc1-c1cc(OC)ccc1OC [Example 37, N-(2,6-Difluoro-phenyl)-5-(2,5-dimethoxyphenyl)-1-ethyl-1H-pyrazole-3-carboxylic acid amide]
50 to 70 | Cn1nc(C(=O)Nc2c(F)cccc2F)cc1-c1cc(C(F)(F)F)ccc1C#N [Example 38, 5-[2-Cyano-5-(trifluoromethyl)-phenyl]-N-(2,6-difluoro-phenyl)-1-methyl-1H-pyrazole-3-carboxylic acid amide]
> 70 | COc1ccc(OC)c(-c2cc(C(=O)Nc3c(F)cccc3F)n[nH]2)c1 [Example 41, N-(2,6-Difluoro-phenyl)-5-(2,5-dimethoxyphenyl)-1H-pyrazole-3-carboxylic acid amide]

Reference: patent publication US9078899B2, “Pyrazolyl-based carboxamides II” (Grünenthal GmbH, priority 2013, dated 2015)
